{
  "source": "patent US10434049B2",
  "about": "“Methods of producing compounds that stimulate hair regrowth, topical formulations, and methods of use” (Joventis S.A., priority 2013, dated 2019)",
  "format_in_all_cases": "in vivo, human",
  "key": {"[1]": {"test_system": "hair growth", "assay": "Before/after photographs of individual subjects (FIG. 2, FIG. 11)", "excerpt": "The subject in FIG. 2A starts out with a complete bald spot. […] Before treatment with Formula (I), the subject shown in FIG. 2C has dark, balding hair."}, "[2]": {"test_system": "burn", "assay": "Burned hands of a lab technician, one hand treated, other untreated", "conditions": "treated for one month; untreated hand developed calluses", "method": "Along these lines, a lab technician who burned both hands, and hair regrowth at the site of the burn was assessed. One hand was treated for one month with a composition comprising Formula (I), and the other hand was left untreated. […] The untreated hand developed calluses instead."}, "[3]": {"test_system": "hair growth", "assay": "Six-month study of twenty volunteers, monthly self-reported hair growth questionnaires", "conditions": "for participants who noticed new hair growth: lotion applied to scalp at least once a day", "excerpt": "In a systematic study of twenty volunteers, including 8 women, study participants self-reported hair regrowth metrics by answering questionnaires at the end of each month of treatment with Formula (I) over the course of six months. The mean age of participants was 54 years old (SD=11 years). Participants had no history of hair implants and had normal eating and sleeping patterns. Participants first read and signed an informed consent form in which they were informed about the hair regeneration product, a lotion comprising Formula (I). The information about Formula (I) included that Formula (I) was designed to increase hair growth, that it was based on natural compounds, and that use of the product would not lead to harmful effects. Participants received explicit instructions on how to use the product, were asked to apply the product at least once a day on their scalp, and were asked not to use any other hair growth or regeneration products for the 6-month duration of the study. […] During this session photos were taken to measure and count any increases in hair regrowth, and participants answered questionnaires that probed the effects using Formula (I). Questionnaires comprised 14 yes or no questions based on Barber's 1998 the hair growth questionnaire. Barber et al., A hair growth questionnaire for use in the evaluation of therapeutic effects in men, J. DERMATOLOGICAL TREATMENT, Vol. 9(3), pp. 181-86 (1998). The questions included: • Did you notice new hair growth during the past month? • Did you notice new hair growth since the start of treatment? • Did you notice any new hair loss during the past month? • Did you notice any new hair loss since the start of the treatment? • Did you notice more hair loss than before since the start of the treatment? • Did you notice that your hairs felt thicker during the past month? • Did you notice that your hairs felt thicker since the start of the treatment? • Did you notice that your hairs felt more healthy during the past month? • Did you notice that your hairs felt more healthy since the start of the treatment? • The tenth and eleventh questions asked whether hairs felt less fragile during the past month and since the start of the treatment. • The final questions asked whether participants had noticed their hair color increasing and whether it became less grey/white during the past month and since the start of the treatment."}, "[4]": {"test_system": "hair growth", "assay": "Six-month study, hair growth by digital analysis of photographs of a chosen spot", "excerpt": "In a systematic study of twenty volunteers, including 8 women, study participants self-reported hair regrowth metrics by answering questionnaires at the end of each month of treatment with Formula (I) over the course of six months. The mean age of participants was 54 years old (SD=11 years). Participants had no history of hair implants and had normal eating and sleeping patterns. Participants first read and signed an informed consent form in which they were informed about the hair regeneration product, a lotion comprising Formula (I). The information about Formula (I) included that Formula (I) was designed to increase hair growth, that it was based on natural compounds, and that use of the product would not lead to harmful effects. Participants received explicit instructions on how to use the product, were asked to apply the product at least once a day on their scalp, and were asked not to use any other hair growth or regeneration products for the 6-month duration of the study. […] During this session photos were taken to measure and count any increases in hair regrowth, and participants answered questionnaires that probed the effects using Formula (I). […] Hair growth was measured by counting and estimating the total amount of thick/thin hairs on the specific spot, based on digital analysis of each photograph."}, "[5]": {"test_system": "collagen in sun damaged skin", "assay": "Cosmetic collagen regeneration clinical trial, high-resolution ultrasound scanner images of skin", "conditions": "ultrasound images before and after treatment, sun damaged skin (FIG. 12A/12B)", "method": "In yet further aspects of the inventive subject matter, cosmetic collagen regeneration effects of Formula (I) were assessed in a clinical trial run by Sempervivum, a medical esthetics company. Twenty-four volunteers (22 women and 2 men) participated in this study. Participants were on average 59 years old (Mean (M)=59 years, Standard Deviation (SD)=12 years). In this case, the age of the participants is 59 years with an average deviation of 12 years. Participants had no history of cosmetic surgery and stated to have normal eating and sleeping patterns. High-resolution ultrasound scanner images of collagen in sun damaged skin are shown in FIG. 12A (before treatment) and FIG. 12B (after treatment). […] It also appears that more interconnected collagen fibers are present in the dermis of the skin, and spots representing collagen seem to be more connected and closer to the epidermal layer."}, "[6]": {"conditions": "over the course of treatment, questionnaires (FIG. 10)"}},
  "data": [
    {"compound": "CC1=CC2(C(C)C)CC(=C1)C2(C)C", "note": "(centres unmarked) [Formula (I), 3,6,6-trimethyl-5-(propan-2-yl)bicyclo[3.1.1]hepta-1,3-diene]", "values": [
      {"measurement": "hair regrowth at alopecia site, subject who lost all body hair after trauma", "setting": "[1]; after 4 months of treatment (FIG. 11A/11B)", "value": "hair growth at the alopecia site"},
      {"measurement": "hair regrowth, subject with complete bald spot", "setting": "[1]; after 6 months of treatment (FIG. 2A/2B)", "value": "white hair has grown into the bald spot"},
      {"measurement": "hair regrowth, subject with dark, balding hair", "setting": "[1]; after 6 months of treatment (FIG. 2C/2D)", "value": "dark hair has begun to regrow"},
      {"measurement": "skin outcome of burned hand", "setting": "[2]", "value": "developed new smooth skin"},
      {"measurement": "participants who noticed new hair growth", "setting": "[3]; after 1 month of treatment, self-reported", "value": 47, "unit": "%"},
      {"measurement": "participants who noticed new hair growth", "setting": "[3]; after 6 months of treatment, self-reported", "value": 94, "unit": "%"},
      {"measurement": "participants who noticed an increase in hair loss", "setting": "[3]; at some point during treatment, self-reported", "value": 20, "unit": "%"},
      {"measurement": "overall effect on hair growth", "setting": "[3]; conclusion from questionnaires and photo analyses, 6-month study", "value": "highly effective in stimulating hair growth"},
      {"measurement": "participants who noticed an increase in healthy hair, thicker hair and less fragile hair", "setting": "[3]; during the last month of treatment and since the start of treatment, self-reported (FIG. 5)", "value": "85-92%"},
      {"measurement": "hair color in participants with white/grey hair before treatment", "setting": "[3]; last month of treatment and since start of treatment, self-reported (FIG. 6)", "value": "significant increase in color"},
      {"measurement": "amount of thick hair in participants with thin hair", "setting": "[3]; over the course of treatment (FIG. 9)", "value": "significant increase in the amount of thick hair"},
      {"measurement": "amount of white hair in participants with white/grey hair", "setting": "[3]; [6]", "value": "increased to a lesser extent"},
      {"measurement": "black hair as percent of total hair in participants with white/grey hair", "setting": "[3]; [6]", "value": "increase in the percent of total hair that was black"},
      {"measurement": "participants who noticed that some new hairs fell out", "setting": "[3]; over the whole course of the treatment, self-reported, alopecia patients excluded", "value": 14, "unit": "%"},
      {"measurement": "increase in long fine and thick hairs in balding participants", "setting": "[4]; after 6 months, photo analysis (FIG. 8)", "value": "triple to quadruple overall increases"},
      {"measurement": "hair growth in bald participants, including alopecia patients", "setting": "[4]; photo analysis, participants initially with no hair at the probed place (FIG. 7)", "value": "both fine hairs and more thick hairs suddenly started to grow"},
      {"measurement": "collagen in skin after treatment", "setting": "[5]", "value": "significant increases in collagen"}
    ]}
  ]
}
